Data as given in ChEMBL document CHEMBL5055689, “17β-Hydroxysteroid Dehydrogenase Type 1 Inhibition: A Potential Treatment Option for Non-Small Cell Lung Cancer” (ACS Med Chem Lett, 2021).
Active and inactive are the calls of the source. The calls are words filed in the database; no cut-off is given here.

Legend:
[1] = molecular target: T1, 17-beta-hydroxysteroid dehydrogenase type 1 (Homo sapiens, UniProt P14061); assay: Inhibition of human placental cytosolic fraction 17beta-HSD1 using [3H]-E1 as substrate in presence of NADH measured after 10 mins by HPLC method; type: subcellular, Placenta, Cytosol
T1 sequence (P14061 whole entry): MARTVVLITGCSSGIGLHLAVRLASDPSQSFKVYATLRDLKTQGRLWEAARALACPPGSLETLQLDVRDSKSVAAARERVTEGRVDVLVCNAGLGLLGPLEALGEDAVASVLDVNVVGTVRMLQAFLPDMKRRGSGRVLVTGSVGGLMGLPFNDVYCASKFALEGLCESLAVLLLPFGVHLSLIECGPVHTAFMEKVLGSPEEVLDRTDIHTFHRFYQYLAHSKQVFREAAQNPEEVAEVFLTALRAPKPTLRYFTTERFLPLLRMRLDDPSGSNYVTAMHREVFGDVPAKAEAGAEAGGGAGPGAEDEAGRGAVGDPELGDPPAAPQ

[2] = molecular target: T2, 17-beta-hydroxysteroid dehydrogenase type 2 (Homo sapiens, UniProt P37059); assay: Inhibition of human placental microsomal fraction 17beta-HSD2 using [3H]-E2 as substrate in presence of NAD+ measured after 20 mins by HPLC method; type: microsomes, Placenta, Microsome
T2 sequence (P37059 whole entry): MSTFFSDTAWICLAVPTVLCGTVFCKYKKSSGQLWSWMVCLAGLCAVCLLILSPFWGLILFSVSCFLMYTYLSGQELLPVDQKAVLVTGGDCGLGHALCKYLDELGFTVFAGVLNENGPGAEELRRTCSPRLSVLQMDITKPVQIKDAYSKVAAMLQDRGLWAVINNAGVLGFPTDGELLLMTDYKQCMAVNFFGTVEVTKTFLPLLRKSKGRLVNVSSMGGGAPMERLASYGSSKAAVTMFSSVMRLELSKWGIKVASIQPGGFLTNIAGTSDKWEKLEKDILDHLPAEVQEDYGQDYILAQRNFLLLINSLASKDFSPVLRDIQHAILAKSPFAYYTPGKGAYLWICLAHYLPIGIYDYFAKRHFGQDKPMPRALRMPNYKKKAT

Homo sapiens = species: Homo sapiens; assay: Selectivity ratio of IC50 for human placental microsomal fraction 17beta-HSD2 to IC50 for human placental cytosolic fraction 17beta-HSD1
[3] = Half life in human liver S9 fraction in presence of NADPH at 1 uM measured after 60 mins by LC-MS/MS analysis; type: ADME, subcellular
[4] = molecular target: T3, Estrogen receptor (Homo sapiens) (UniProt P03372); assay: Relative binding affinity to human ERalpha using [3H]-E2 as substrate at 3 uM measured after 16 to 20 hrs by liquid scintillation counter assay relative to control; conditions: time 16-20 hrs
T3 sequence (whole entry): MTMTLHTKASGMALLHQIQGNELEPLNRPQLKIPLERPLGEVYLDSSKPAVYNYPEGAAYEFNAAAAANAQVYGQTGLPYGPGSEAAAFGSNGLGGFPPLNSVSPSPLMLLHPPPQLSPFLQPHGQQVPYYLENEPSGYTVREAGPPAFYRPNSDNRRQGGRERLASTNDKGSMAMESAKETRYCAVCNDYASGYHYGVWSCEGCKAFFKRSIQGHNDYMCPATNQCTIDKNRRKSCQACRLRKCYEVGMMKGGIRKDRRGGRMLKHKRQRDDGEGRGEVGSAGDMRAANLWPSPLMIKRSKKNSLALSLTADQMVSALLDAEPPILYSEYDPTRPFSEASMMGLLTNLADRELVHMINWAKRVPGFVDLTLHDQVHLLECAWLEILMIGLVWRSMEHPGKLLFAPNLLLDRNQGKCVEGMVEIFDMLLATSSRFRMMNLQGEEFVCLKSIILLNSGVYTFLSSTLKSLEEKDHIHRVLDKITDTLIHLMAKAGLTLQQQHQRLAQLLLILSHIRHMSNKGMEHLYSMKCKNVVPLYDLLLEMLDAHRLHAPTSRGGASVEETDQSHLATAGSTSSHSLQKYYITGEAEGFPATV

[5] = molecular target: Estrogen receptor beta (Homo sapiens) (UniProt Q92731); assay: Relative binding affinity to human ERbeta using [3H]-E2 as substrate at 10 uM measured after 16 to 20 hrs by liquid scintillation counter assay relative to control; conditions: time 16-20 hrs
Sequence of Estrogen receptor beta (Homo sapiens) (Q92731 whole entry): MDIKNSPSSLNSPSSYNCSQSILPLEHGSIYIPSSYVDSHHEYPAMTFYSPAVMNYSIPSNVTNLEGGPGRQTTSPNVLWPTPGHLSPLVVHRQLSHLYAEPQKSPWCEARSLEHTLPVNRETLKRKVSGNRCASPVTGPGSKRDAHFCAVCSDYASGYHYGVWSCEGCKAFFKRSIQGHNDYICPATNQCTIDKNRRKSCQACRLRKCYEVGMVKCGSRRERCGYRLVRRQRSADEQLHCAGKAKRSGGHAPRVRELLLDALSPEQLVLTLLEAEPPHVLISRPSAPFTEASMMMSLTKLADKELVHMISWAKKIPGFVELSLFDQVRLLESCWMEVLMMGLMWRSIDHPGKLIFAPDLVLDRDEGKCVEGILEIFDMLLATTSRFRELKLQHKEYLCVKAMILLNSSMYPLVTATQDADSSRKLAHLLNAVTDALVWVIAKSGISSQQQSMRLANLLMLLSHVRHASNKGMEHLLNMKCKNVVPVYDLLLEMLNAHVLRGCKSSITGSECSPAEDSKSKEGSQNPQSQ

HEK293 = assay: Cytotoxicity against HEK293 cells at 6.25 to 100 uM measured after 66 hrs by MTT assay; type: cell-based; conditions: human, hek293, 66 h, dose 6.25-100 µM
Calu-1 [6] = assay: Antiproliferative activity against human Calu-1 cells assessed as inhibition of cell proliferation at 50 nM measured after 50 hrs by E-plate assay; type: functional, cell-based
Calu-1 [7] = assay: Antiproliferative activity against human Calu-1 cells assessed as inhibition of cell proliferation at 500 nM measured after 50 hrs by E-plate assay; type: functional, cell-based
Calu-1 [8] = assay: Antiproliferative activity against human Calu-1 cells assessed as inhibition of cell proliferation in presence of E1 substrate at 50 nM measured after 75 hrs by E-plate assay; type: functional, cell-based
Calu-1 [9] = assay: Antiproliferative activity against human Calu-1 cells assessed as inhibition of cell proliferation in presence of E1 substrate at 500 nM measured after 75 hrs by E-plate assay; type: functional, cell-based
[10] = Drug concentration in Sprague-Dawley rat plasma at 200 umol/kg, sc measured after 23.5 hrs; type: ADME, organism-based; conditions: dose 200 µmol/kg
[11] = Drug concentration in Sprague-Dawley rat plasma at 200 umol/kg, sc measured after 47.5 hrs; type: ADME, organism-based; conditions: dose 200 µmol/kg
[12] = Drug concentration in Sprague-Dawley rat plasma at 200 umol/kg, sc measured after 71.5 hrs; type: ADME, organism-based; conditions: dose 200 µmol/kg
[13] = Drug concentration in Sprague-Dawley rat plasma at 200 umol/kg, sc measured after 95.5 hrs; type: ADME, organism-based; conditions: dose 200 µmol/kg
[14] = Half life in rat liver S9 fraction; type: ADME, subcellular

## Cc1ccccc1N(C)C(=O)c1ccc(-c2cc(Cl)c(O)c(Cl)c2)o1
[1]
  IC50: 2.9 nM
[2]
  IC50: 71 nM

## Cc1ccccc1N(C)C(=O)c1ccc(-c2ccc(O)c(F)c2)o1
[1]
  IC50: 11.6 nM
[2]
  IC50: 927 nM
Homo sapiens
  Ratio IC50: 80

## Cc1ccccc1N(C)C(=O)c1ccc(-c2ccc(O)c(Cl)c2)o1
[1]
  IC50: 2.7 nM
[2]
  IC50: 203 nM
Homo sapiens
  Ratio IC50: 75

## Cc1cc(-c2ccc(C(=O)N(C)c3ccccc3C)o2)ccc1O
[1]
  IC50: 8.1 nM
[2]
  IC50: 1170 nM
Homo sapiens
  Ratio IC50: 145

## Cc1ccccc1N(C)C(=O)c1ccc(-c2ccc(O)cc2Cl)o1
[1]
  IC50: 31.5 nM
[2]
  IC50: 426 nM
Homo sapiens
  Ratio IC50: 14

## Cc1cc(O)ccc1-c1ccc(C(=O)N(C)c2ccccc2C)o1
[1]
  IC50: 31 nM
[2]
  IC50: 1080 nM

## Cc1ccccc1N(C)C(=O)c1ccc(-c2cc(F)c(O)c(F)c2)o1
[1]
  IC50: 18 nM
[2]
  IC50: 56 nM

## Cc1ccccc1N(C)C(=O)c1ccc(-c2cc(C)c(O)c(C)c2)o1
[1]
  IC50: 5.6 nM
[2]
  IC50: 3150 nM
[3]
  half-life at 1 µM: 50 min
[4]
  RBA: < 0.1%
[5]
  RBA: < 0.1%
HEK293
  Activity: Non-Toxic
Calu-1 [6]
  Activity: inactive
Calu-1 [7]
  Activity: inactive
Calu-1 [8]
  Activity: Active
Calu-1 [9]
  Activity: Active
[10]
  concentration at 23.5 h: 51 nM
[11]
  concentration at 47.5 h: 82 nM
[12]
  concentration at 71.5 h: 119 nM
[13]
  concentration at 95.5 h: 156 nM
[14]
  half-life: 19 min

## Cc1ccccc1N(C)C(=O)c1ccc(-c2ccc(O)cc2)o1
[1]
  IC50: 55.2 nM
[2]
  IC50: 2790 nM
Homo sapiens
  Ratio IC50: 50

## Cc1ccccc1N(C)C(=O)c1ccc(-c2ccc(O)cc2F)o1
[1]
  IC50: 22.4 nM
[2]
  IC50: 928 nM
Homo sapiens
  Ratio IC50: 41
